Patent publication US20240279218A1 (Hoffmann-La Roche Inc., priority 2016, published 2024)

What was measured:
h-GABA-A α5β3γ2 [1] = biological target: T1, h-GABA-A α5β3γ2 (Homo sapiens (Human), UniProt P18507+P31644); assay: [3H]flumazenil competition binding assay, membranes of HEK293 cells expressing human GABAA receptors; settings: displacement of [3H]flumazenil 0.5 nM, HEK293 cells expressing human receptors, mean of two determinations; read-out: Ki h-GABA-A α5β3γ2
Summary of the method: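 Membranes were prepared from HEK293 cells with transient human α5β3γ2 expression and assayed in Krebs-tris, pH 7.5. Bound radioactivity measured on filters by liquid scintillation.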

h-GABA-A α5β3γ2 [2] = biological target: T1, h-GABA-A α5β3γ2; assay: Two-electrode voltage clamp electrophysiology in Xenopus oocytes expressing GABAA receptors, modulation of GABA EC20 current; format: cell-based; settings: Xenopus oocytes; for Efficacy (GABA) %: % modulation of GABA EC20 = 100*(Fold increase−1); for Fold increase h-GABA-A α5β3γ2 oocyte: GABA EC20, test compound at approx. 30 fold its Ki
Summary of the method: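 Values are % modulation of an EC20 GABA response, derived point by point from the ratio of compound-exposed versus control current traces (extremum taken, 100×(fold−1)). Recordings used oocytes injected with human α5, β3, γ2 mRNA, clamped at −80 mV at room temperature, at least 3 oocytes each.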

Structure (SMILES) | Ki (h-GABA-A α5β3γ2 [1]) [nM] | Efficacy (GABA) % (h-GABA-A α5β3γ2 [2]) [%] | Fold increase h-GABA-A α5β3γ2 oocyte (h-GABA-A α5β3γ2 [2])
Cc1ccc(-c2noc(C)c2COc2ccc(C(=O)NC(C)(CO)CO)nn2)cn1 [Example 147, N-(1,3-dihydroxy-2-methylpropan-2-yl)-6-((5-methyl-3-(6-methylpyridin-3-yl)isoxazol-4-yl)methoxy)pyridazine-3-carboxamide] | 9.6 | 48 | 1.48
Cc1ccc(-c2noc(C)c2COc2ccc(C(=O)N[C@H]3CC[C@@](C)(O)CC3)nn2)cn1 [Example 148, N-((1s,4s)-4-hydroxy-4-methylcyclohexyl)-6-((5-methyl-3-(6-methylpyridin-3-yl)isoxazol-4-yl)methoxy)pyridazine-3-carboxamide] | 13.8 | 77 | 1.77
Cc1ccc(-c2noc(C)c2COc2ccc(C(=O)N[C@H]3CC[C@H](O)CC3)nn2)cn1 [Example 153, trans-N-(4-hydroxycyclohexyl)-6-((5-methyl-3-(6-methylpyridin-3-yl)isoxazol-4-yl)methoxy)pyridazine-3-carboxamide] | 5.5 | 84 | 1.84
Cc1ccc(-c2noc(C)c2COc2ccc(C(=O)N3C4COCC3C4)nn2)cn1 [Example 157, 3-oxa-6-azabicyclo[3.1.1]heptan-6-yl(6-((5-methyl-3-(6-methylpyridin-3-yl)isoxazol-4-yl)methoxy)pyridazin-3-yl)methanone] | 6 | 76 | 1.76

The remaining lines, values ahead:

Ki (h-GABA-A α5β3γ2 [1]) [nM] | Efficacy (GABA) % (h-GABA-A α5β3γ2 [2]) [%] | Fold increase h-GABA-A α5β3γ2 oocyte (h-GABA-A α5β3γ2 [2]) | Structure (SMILES)
10 | 97 | 1.97 | CO[C@H]1CC[C@H](NC(=O)c2ccc(OCc3c(-c4ccc(C)nc4)noc3C)nn2)CC1 [Example 154, trans-N-(4-methoxycyclohexyl)-6-((5-methyl-3-(6-methylpyridin-3-yl)isoxazol-4-yl)methoxy)pyridazine-3-carboxamide]
15.4 | 46 | 1.46 | Cc1ccc(-c2noc(C)c2COc2ccc(C(=O)N3CC4(C3)CC(F)(F)C4)nn2)cn1 [Example 155, (6,6-difluoro-2-azaspiro[3.3]heptan-2-yl)(6-((5-methyl-3-(6-methylpyridin-3-yl)isoxazol-4-yl)methoxy)pyridazin-3-yl)methanone]
7.8 | 98 | 1.98 | Cc1ccc(-c2noc(C)c2COc2ccc(C(=O)NC3CCCC(O)C3)nn2)cn1 (stereo not drawn) [Example 156, N-(3-hydroxycyclohexyl)-6-((5-methyl-3-(6-methylpyridin-3-yl)isoxazol-4-yl)methoxy)pyridazine-3-carboxamide]
18.2 | 79 | 1.79 | CO[C@H]1CC[C@@H](NC(=O)c2ccc(OCc3c(-c4ccc(C)nc4)noc3C)nn2)CC1 [Example 158, cis-N-(4-methoxycyclohexyl)-6-((5-methyl-3-(6-methylpyridin-3-yl)isoxazol-4-yl)methoxy)pyridazine-3-carboxamide]
23.7 | 55 | 1.55 | Cc1onc(-c2ccc(Cl)nc2)c1COc1ccc(C(=O)NC2CCOCC2)nn1 [Example 159, 6-((3-(6-chloropyridin-3-yl)-5-methylisoxazol-4-yl)methoxy)-N-(tetrahydropyran-4-yl)pyridazine-3-carboxamide]
8 | 60 | 1.6 | Cc1onc(-c2ccc(Cl)nc2)c1COc1ccc(C(=O)NC2(C)COC2)nn1 [Example 161, 6-((3-(6-chloropyridin-3-yl)-5-methylisoxazol-4-yl)methoxy)-N-(3-methyloxetan-3-yl)pyridazine-3-carboxamide]
